# Experimental data reported in publication PMC6832352, “Synthesis and Glycosidase Inhibition of Broussonetine M and Its Analogues” (Molecules, 2019).
# Target: T1, β-Glucosidase (Bos taurus, UniProt F1MNT6)
# T1 sequence (F1MNT6 1-469): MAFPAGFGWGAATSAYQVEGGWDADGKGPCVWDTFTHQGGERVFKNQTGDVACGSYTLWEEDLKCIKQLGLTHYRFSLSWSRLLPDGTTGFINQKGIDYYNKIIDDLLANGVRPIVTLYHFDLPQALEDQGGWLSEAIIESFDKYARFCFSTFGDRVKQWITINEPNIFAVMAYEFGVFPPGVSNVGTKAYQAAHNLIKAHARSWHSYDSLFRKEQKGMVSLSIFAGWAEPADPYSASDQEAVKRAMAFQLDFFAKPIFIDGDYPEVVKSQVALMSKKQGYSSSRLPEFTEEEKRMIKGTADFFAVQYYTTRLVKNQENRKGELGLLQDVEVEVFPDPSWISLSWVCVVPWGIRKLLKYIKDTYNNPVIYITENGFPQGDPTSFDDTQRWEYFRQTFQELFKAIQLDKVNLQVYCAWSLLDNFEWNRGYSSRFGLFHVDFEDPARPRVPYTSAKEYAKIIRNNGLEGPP
# Experiment: glycosidase inhibition assay, bovine liver β-glucosidase
# Assay type: biochemical
# Protocol: With rat intestinal maltase as an exception, other enzymes were purchased from Sigma-Aldrich Chemical Co. (St. Louis, Mo. USA). Brush border membranes prepared from rat small intestine according to the method of Kessler et al. were assayed at pH 6.8 for rat intestinal maltase using maltose. The released D-glucose was determined colorimetrically using the Glucose CII-test Wako (Wako Pure Chemical Ind.; Osaka, Japan). Other glycosidase activities were determined using an appropriate p-nitrophenyl glycoside as substrate in a buffer solution at the optimal pH value of each enzyme. The reaction was stopped by adding 400 mM Na2CO3. The released p-nitrophenol was measured spectrometrically at 400 nm.
compound,measurement,value
"OCCC[C@H](O)CCCCCCCCC[C@@H]1N[C@@H](CO)[C@H](O)[C@H]1O [ent-3, (2S,3S,4S,5S)-2-hydroxymethyl-3,4-dihydroxyl-5-((10S)-10,13-(dihydroxyl)dec-1-yl) pyrrolidine]",inhibition at 100 µM,46.5%
